Experimental data published in patent publication US10927117B2 (BEIGENE SWITZERLAND GMBH, priority 2016, dated 2021).

Test system: Chronic Lymphocytic Leukemia and Small Lymphocytic Lymphoma (CLL/SLL)
Experiment: Phase 1 trial in patients with CLL/SLL
Type: in vivo, human
Method: The dose-escalation component of the trail tested total daily doses between 40 mg and 320 mg, and the ongoing dose-expansion component is testing doses of 160 mg twice a day (BID) or 320 mg once a day (QD). As of Mar. 31, 2017, 69 patients with CLL or SLL (18 TN, […]) were enrolled in the study.

[1] = CLL/SLL, adverse event of interest

Question: Which results are given for `C=CC(=O)N1CCC([C@@H]2CCNc3c(C(N)=O)c(-c4ccc(Oc5ccccc5)cc4)nn32)CC1` [Compound 1, (S)-7-(1-acryloylpiperidin-4-yl)-2-(4-phenoxyphenyl)-4,5,6,7-tetra-hydropyrazolo[1,5-a]pyrimidine-3-carboxamide]?
Answer: AE arthralgia (CLL/SLL): 12%; AE cough (CLL/SLL): 23%; AE diarrhea (CLL/SLL): 22%; AE fatigue (CLL/SLL): 29%; AE headache (CLL/SLL): 19%; AE hematuria (CLL/SLL): 15%; AE muscle spasms (CLL/SLL): 12%; AE nausea (CLL/SLL): 13%; AE rash (CLL/SLL): 13%; AE upper respiratory tract infection (CLL/SLL): 28%; AE urinary tract infection (CLL/SLL): 12%; number of serious AEs (SAEs) (CLL/SLL): 18; patients with serious AEs (CLL/SLL): 13; overall response rate (ORR) (CLL/SLL, 66 evaluable patients, median follow-up 10.5 months): 94%; PRs with lymphocytosis (PR-Ls) (CLL/SLL, 66 patients): 9%; complete responses (CRs) (CLL/SLL, 66 patients): 3%; partial responses (PRs) (CLL/SLL, 66 patients): 82%; grade 2 atrial fibrillation [1]: one case; grade 2 diarrhea [1]: one case; AE petechiae/purpura/contusion (CLL/SLL, any attribution): 46%; patients who discontinued treatment due to an AE (CLL/SLL, grade 2 pleural effusion): one patient; treatment discontinuation rate (CLL/SLL, median follow-up 10.5 months): 3%; major bleeding event (CLL/SLL, subcutaneous hemorrhage): one case of grade 3 purpura; CRs (R/R CLL/SLL, 50 patients): 2%; PR-Ls (R/R CLL/SLL, 50 patients): 8%; PRs (R/R CLL/SLL, 50 patients): 82%; stable disease (R/R CLL/SLL, 50 patients): 6%; ORR (R/R CLL/SLL, 50 patients, median follow-up 14.0 months): 92%; CRs (TN CLL/SLL, 16 patients): 6%; PR-Ls (TN CLL/SLL, 16 patients): 13%; PRs (TN CLL/SLL, 16 patients): 81%; ORR (TN CLL/SLL, 16 patients, median follow-up 7.6 months): 100%
